Patent US20240277722A1, “CANCER THERAPY USING A COMBINATION OF CDK7 INHIBITOR WITH AN ANTI-CANCER AGENT” (Aurigene Oncology Limited, priority 2021, published 2024)
Values joined by “and” are separate entries in the source; they are usually repeats but may differ in a detail not shown here. Equal entries are not always repeated. Where two headings read alike, the source gives them in different places.

How the values were obtained:
[1] = system: MCF-7 cells; experiment: MCF-7 cell proliferation, CTG reagent, 6-day treatment, single agents and combination (CompuSyn synergy analysis); assay type: cell-based
Procedure: The effect of 6-day compound treatment on cell proliferation was measured using CTG reagent.

[2] = system: Z-138 cells; experiment: Z-138 cell proliferation, CTG reagent, 3-day treatment, single agents and combination (CompuSyn synergy analysis); assay type: cell-based
Procedure: Z-138 cells were treated with serial dilutions of Compound-44A (CDK7 inhibitor), serial dilutions of venetoclax individually and in combination for 3 days. The effect of 3-day compound treatment on cell proliferation was measured using CTG reagent. Percentage inhibition of cell proliferation in individual (Compound-44A, venetoclax) and combination treatments (Compound-44A+venetoclax) were analyzed using CompuSyn software to assess synergy.

## CC(C)[C@H](C(=O)Nc1cc(C2CC2)[nH]n1)c1cccc(-c2ccc(NC(=O)/C=C/CN3CCOCC3)nc2)c1 (single isomer, unassigned) [Compound-44A]
[1]; Compound-44A 0.006272 nM, Day-6
  % Inhibition of proliferation: −4.1% and −1.7% and 4.8%
[1]; Compound-44A 0.018817 nM, Day-6
  % Inhibition of proliferation: 4.6% and 3.8%
[1]; Compound-44A 0.056450 nM, Day-6
  % Inhibition of proliferation: −11.5% and −2.9% and −2.8%
[1]; Compound-44A 4.5725 nM, Day-6
  % Inhibition of proliferation: 12.9% and 11.7%
[1]; Compound-44A 13.7174 nM, Day-6
  % Inhibition of proliferation: 44.3% and 47.5%
[1]; Compound-44A 41.1523 nM, Day-6
  % Inhibition of proliferation: 75.4% and 75.5%
[1]; Compound-44A 123.4568 nM, Day-6
  % Inhibition of proliferation: 84%
[1]; Compound-44A 370.3704 nM, Day-6
  % Inhibition of proliferation: 87.5% and 86.2%
[1]; Compound-44A 1111.11 nM, Day-6
  % Inhibition of proliferation: 106.1%
[1]; Compound-44A 3333.333 nM, Day-6
  % Inhibition of proliferation: 106.1% and 106.3%
[1]; Compound-44A 10000 nM, Day-6
  % Inhibition of proliferation: 106.4% and 106.3%
[1]; Compound-44A 30000 nM, Day-6
  % Inhibition of proliferation: 112.3%
[1]; Homo sapiens, MCF7, 144 h, Fulvestrant 0 nM + Compound-44A 0.50 nM, 6 days
  inhibition at 0.0005 µM: 4%
[1]; Homo sapiens, MCF7, 144 h, Fulvestrant 0 nM + Compound-44A 1.50 nM, 6 days
  inhibition at 0.0015 µM: 4%
[1]; Homo sapiens, MCF7, 144 h, Fulvestrant 0 nM + Compound-44A 41.00 nM, 6 days
  inhibition at 0.041 µM: 74%
[1]; Homo sapiens, MCF7, 144 h, Fulvestrant 0 nM + Compound-44A 123.00 nM, 6 days
  inhibition at 0.123 µM: 83%
[1]; Homo sapiens, MCF7, 144 h, Fulvestrant 0 nM + Compound-44A 370.30 nM, 6 days
  inhibition at 0.3703 µM: 87%
[1]; Homo sapiens, MCF7, Compound-44A 0.018817 nM, Day-6
  inhibition at 18.82 pM: 2.9%
[1]; Homo sapiens, MCF7, Compound-44A 4.5725 nM, Day-6
  inhibition at 0.0045725 µM: 13.6%
[1]; Homo sapiens, MCF7, Compound-44A 13.7174 nM, Day-6
  inhibition at 0.0137174 µM: 48.3%
[1]; Homo sapiens, MCF7, Compound-44A 41.1523 nM, Day-6
  inhibition at 0.0411523 µM: 71.6%
[1]; Homo sapiens, MCF7, Compound-44A 123.4568 nM, Day-6
  inhibition at 0.123457 µM: 81.6%
[1]; Homo sapiens, MCF7, Compound-44A 370.3704 nM, Day-6
  inhibition at 0.37037 µM: 88.5%
[1]; Homo sapiens, MCF7, Compound-44A 1111.11 nM, Day-6
  inhibition at 1.11111 µM: 105%
[1]; Homo sapiens, MCF7, Compound-44A 3333.333 nM, Day-6
  inhibition at 3.33333 µM: 106%
[1]; Homo sapiens, MCF7, Compound-44A 10000 nM, Day-6
  inhibition at 10 µM: 106%
[1]; Homo sapiens, MCF7, Compound-44A 30000 nM, Day-6
  inhibition at 30 µM: 112%
[1]; in combination with fulvestrant
  synergy in inhibiting the proliferation of breast cancer cell line MCF-7: synergy
[1]; single agent, serial dilutions, 6 days
  inhibition of proliferation in MCF-7 cells: dose dependent inhibition of proliferation
[2]; Compound-44A 0.0015 μM, Day-3
  % Inhibition of proliferation: −1.8% and 3.5%
[2]; Compound-44A 0.0046 μM, Day-3
  % Inhibition of proliferation: 5.8% and 5.6% and −3.4%
[2]; Compound-44A 0.0412 μM, Day-3
  % Inhibition of proliferation: 63.6% and 62.2%
[2]; Compound-44A 0.1235 μM, Day-3
  % Inhibition of proliferation: 72.1% and 74.5%
[2]; Compound-44A 0.3704 μM, Day-3
  % Inhibition of proliferation: 77.2% and 77.3%
[2]; Compound-44A 1.1111 μM, Day-3
  % Inhibition of proliferation: 99.3% and 98.8%
[2]; Compound-44A 3.3333 μM, Day-3
  % Inhibition of proliferation: 99.9%
[2]; Compound-44A 10.0000 μM, Day-3
  % Inhibition of proliferation: 99.9%
[2]; Homo sapiens, Z-138, 72 h, Venetoclax 0.0 μM + Compound-44A 0.0015 μM, 3 days
  inhibition at 0.0015 µM: 2%
[2]; Homo sapiens, Z-138, 72 h, Venetoclax 0.0 μM + Compound-44A 0.0412 μM, 3 days, read-out: % Inhibition in proliferation
  inhibition at 0.0412 µM: 63%
[2]; Homo sapiens, Z-138, 72 h, Venetoclax 0.0 μM + Compound-44A 0.1235 μM, 3 days, read-out: % Inhibition in proliferation
  inhibition at 0.1235 µM: 73%
[2]; Homo sapiens, Z-138, 72 h, Venetoclax 0.0 μM + Compound-44A 0.3704 μM, 3 days, read-out: % Inhibition in proliferation
  inhibition at 0.3704 µM: 77%
[2]; Homo sapiens, Z-138, 72 h, Venetoclax 0.0 μM + Compound-44A 1.1111 μM, 3 days, read-out: % Inhibition in proliferation
  inhibition at 1.1111 µM: 99%
[2]; Homo sapiens, Z-138, Compound-44A 0.0412 μM, Day-3, read-out: % Inhibition of proliferation
  inhibition at 0.0412 µM: 62.1%
[2]; Homo sapiens, Z-138, Compound-44A 0.1235 μM, Day-3, read-out: % Inhibition of proliferation
  inhibition at 0.1235 µM: 72.4%
[2]; Homo sapiens, Z-138, Compound-44A 0.3704 μM, Day-3, read-out: % Inhibition of proliferation
  inhibition at 0.3704 µM: 76.6%
[2]; Homo sapiens, Z-138, Compound-44A 1.1111 μM, Day-3, read-out: % Inhibition of proliferation
  inhibition at 1.1111 µM: 99.4%
[2]; Homo sapiens, Z-138, Compound-44A 3.3333 μM, Day-3
  inhibition at 3.3333 µM: 100%
[2]; Homo sapiens, Z-138, Compound-44A 10.0000 μM, Day-3
  inhibition at 10 µM: 100%
[2]; in combination with venetoclax
  synergy in inhibiting the proliferation of leukemia cancer cell line Z-138: synergy
[2]; single agent, serial dilutions, 3 days
  inhibition of proliferation in Z-138 cells: dose dependent inhibition of proliferation
